The values below come from patent US8143257B2, “Substituted phenols as active agents inhibiting VEGF production” (PTC Therapeutics, Inc., priority 2004, dated 2012).

In the first experiment the test system is hypoxia-inducible endogenous VEGF expression. Nature of the experiment: Assay to evaluate effect on hypoxia-inducible endogenous VEGF expression (VEGF ELISA, HeLa cells). Format: cell-based. Conditions: Homo sapiens, HeLa, read-out: ELISA EC50 (effective concentration required to lower the amount of VEGF translation by 50%). The protocol:
Assay to Evaluate Effect on Hypoxia-Inducible Endogenous VEGF Expression
The ability of the compounds of the invention to modulate hypoxia-inducible endogenous VEGF expression is analyzed as follows. VEGF protein levels are monitored by an ELISA assay (R&D Systems). Briefly, HeLa cells are cultured for 24-48 hours under hypoxic conditions (1% O2, 5% CO2, balanced with nitrogen) in the presence or absence of a compound of the invention. The conditioned media is then assayed by ELISA, and the concentration of VEGF is calculated from the standard ELISA curve of each assay.
A dose-response analysis is performed using the ELISA assay and conditions described above. A series of, e.g., seven different concentrations are analyzed. In parallel, a dose-response cytotoxicity assay is performed using Cell Titer Glo (Promega) under the same conditions as the ELISA to ensure that the inhibition of VEGF expression is not due to the cytotoxicity. Dose-response curves are plotted using percentage inhibition versus concentration of the compound, and EC50 and CC50 values are generated for each compound with the maximal inhibition set as 100% and the minimal inhibition as 0%.
The most preferred compounds of the invention are those with μM values of 3 or less.
With `NC(=O)C1(N2CCCCC2)CCN(C(=O)Oc2ccc3ccccc3c2Br)CC1` [4′-Carbamoyl-[1,4′]bipiperidinyl-1′-carboxylic acid 1-bromo-naphthalen-2-yl ester], the EC50 amounted to 6.54 µM. For the molecule `Cc1ccc2cc(OC(=O)N3CCCCC3C)ccc2n1` (centres unmarked) [2-Methyl-piperidine-1-carboxylic acid 2-methyl-quinolin-6-yl ester], the EC50 is greater than 30 µM. On the same count and under the same terms, then `Cc1ccc(OC(=O)N2CCCN(C)CC2)c(Br)c1` [4-Methyl-[1,4]diazepane-1-carboxylic acid 2-bromo-4-methyl-phenyl ester], with greater than 30 µM.

The same experiment, now with this note: Homo sapiens; HeLa cells cultured 24-48 hours under hypoxic conditions (1% O2, 5% CO2); VEGF in conditioned media by ELISA; read-out: ELISA EC50 (effective concentration required to lower the amount of VEGF translation by 50%).
`O=C(Oc1cc(Cl)c(Cl)cc1Cl)N1CCCC1` [Pyrrolidine-1-carboxylic acid 2,4,5-trichloro-phenyl ester]: the EC50 is greater than 30 µM.

As for `O=C(Oc1c(Cl)cc(Cl)cc1Cl)N1CCc2ccccc21` [2,3-Dihydro-indole-1-carboxylic acid 2,4,6-trichloro-phenyl ester], the EC50 is greater than 30 µM.

On to `CCc1cccc(NC(=O)Oc2ccc3ccccc3c2)c1` [(3-Ethyl-phenyl)-carbamic acid naphthalen-2-yl ester], for which the EC50 was greater than 30 µM.

Take `COc1ccc2ccc(OC(=O)N3CCC(C(O)(c4ccccc4)c4ccccc4)CC3)c(Br)c2c1` [4-(Hydroxy-diphenyl-methyl)-piperidine-1-carboxylic acid 1-bromo-7-methoxy-naphthalen-2-yl ester]: the EC50 is greater than 10 µM. The same measure, in the same setting: in the case of `O=C(Oc1cc2ccccc2cn1)N1CCCCC1` [Piperidine-1-carboxylic acid isoquinolin-3-yl ester] it was greater than 30 µM; in that of `CC1CCN(C(=O)Oc2ccc3ccccc3c2Br)CC1` [4-Methyl-piperidine-1-carboxylic acid 1-bromo-naphthalen-2-yl ester], 0.469 µM. Same read-out and setting: in the case of `O=C(Oc1c(Cl)cc(Cl)cc1Cl)N1CCCC1` [Pyrrolidine-1-carboxylic acid 2,4,6-trichloro-phenyl ester] it was 23 µM; in that of `O=C(Nc1ccc2ccccc2c1Br)N1CCCCC1` [Piperidine-1-carboxylic acid (1-bromo-naphthalen-2-yl)-amide], greater than 10 µM; in that of `CC(=O)c1c(OC(=O)N2CC(C)CC(C)C2)ccc2ccccc12` (centres unmarked) [3,5-Dimethyl-piperidine-1-carboxylic acid 1-acetyl-naphthalen-2-yl ester], 0.764 µM.

`O=C(Nc1ccc2ccccc2c1Br)N1CCC(C(O)(c2ccccc2)c2ccccc2)CC1` [4-(Hydroxy-diphenyl-methyl)-piperidine-1-carboxylic acid (1-bromo-naphthalen-2-yl)-amide]: the EC50 turned out to be 0.22 µM. Turning to `O=C(Oc1ccc2ccccc2c1Br)N1CCC(Cc2ccccc2)CC1` [4-Benzyl-piperidine-1-carboxylic acid 1-bromo-naphthalen-2-yl ester], the EC50 was found to be 0.259 µM. On the same count and under the same terms, in the case of `CC(=O)c1c(OC(=O)N2CCc3cccnc32)ccc2ccccc12` [2,3-Dihydro-pyrrolo[2,3-b]pyridine-1-carboxylic acid 1-acetyl-naphthalen-2-yl ester] it was greater than 30 µM; in that of `CS(=O)(=O)Nc1c(OC(=O)Oc2ccc3ccccc3c2NS(C)(=O)=O)ccc2ccccc12` [Carbonic acid bis-(1-methanesulfonylamino-naphthalen-2-yl) ester], 4.3 µM; in that of `CC1CC(C)CN(C(=O)Oc2ncc3ccccc3c2Cl)C1` (centres unmarked) [3,5-Dimethyl-piperidine-1-carboxylic acid 4-chloro-isoquinolin-3-yl ester], greater than 10 µM. On the same count and under the same terms, then `CC1CC(C)CN(C(=O)Oc2c(Cl)cc(Cl)cc2Cl)C1` (centres unmarked) [3,5-Dimethyl-piperidine-1-carboxylic acid 2,4,6-trichloro-phenyl ester], with greater than 30 µM; and `O=C(Nc1ccc2ccccc2c1Cl)N1CCN(c2ccc(Cl)cc2)CC1` [4-(4-Chloro-phenyl)-piperazine-1-carboxylic acid (1-chloro-naphthalen-2-yl)-amide], with greater than 10 µM; and `Cc1ccc(OC(=O)N2CCC(C)CC2)c(Br)c1` [4-Methyl-piperidine-1-carboxylic acid 2-bromo-4-methyl-phenyl ester], with greater than 30 µM.
